Data on one compound can be found in patent US20180125835A1, “Dosage and Use of an A2A Antagonist” (H. Lundbeck A/S, priority 2014, published 2018).

The target of one experiment is T1, A3 (Homo sapiens, UniProt P0DMS8).
T1 sequence (P0DMS8 1-318): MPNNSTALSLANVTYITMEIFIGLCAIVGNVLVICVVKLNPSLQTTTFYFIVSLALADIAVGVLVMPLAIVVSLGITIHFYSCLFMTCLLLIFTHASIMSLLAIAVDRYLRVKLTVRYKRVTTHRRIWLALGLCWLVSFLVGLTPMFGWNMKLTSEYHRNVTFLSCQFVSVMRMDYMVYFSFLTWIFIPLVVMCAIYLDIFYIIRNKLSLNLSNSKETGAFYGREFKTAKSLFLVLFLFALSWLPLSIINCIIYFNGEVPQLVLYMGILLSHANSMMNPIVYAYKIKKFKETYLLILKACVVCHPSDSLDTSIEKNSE
Kind of experiment: Adenosine receptor binding affinity, human A3.

Experiment [1] deals with T2, A2A receptor (Rattus norvegicus, UniProt P30543). The experiment is described as follows: Adenosine receptor binding affinity, rat A2A.
T2 sequence (P30543 whole entry): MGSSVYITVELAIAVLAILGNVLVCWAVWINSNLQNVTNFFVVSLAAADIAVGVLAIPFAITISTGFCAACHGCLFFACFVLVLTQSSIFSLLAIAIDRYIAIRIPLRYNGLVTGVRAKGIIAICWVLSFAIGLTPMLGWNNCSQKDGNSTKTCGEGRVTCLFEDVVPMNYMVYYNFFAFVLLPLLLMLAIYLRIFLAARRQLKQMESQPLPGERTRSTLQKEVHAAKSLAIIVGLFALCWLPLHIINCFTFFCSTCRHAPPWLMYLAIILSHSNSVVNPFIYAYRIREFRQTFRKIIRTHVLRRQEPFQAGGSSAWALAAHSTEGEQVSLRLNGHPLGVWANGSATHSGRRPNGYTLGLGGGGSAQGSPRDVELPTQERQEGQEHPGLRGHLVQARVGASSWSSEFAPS
In experiment [2] the target is A2A receptor (Mus musculus, UniProt Q60613). The experiment is described as follows: Adenosine receptor binding affinity, mouse A2A.
Sequence of A2A receptor (Mus musculus, UniProt Q60613) (Q60613 whole entry): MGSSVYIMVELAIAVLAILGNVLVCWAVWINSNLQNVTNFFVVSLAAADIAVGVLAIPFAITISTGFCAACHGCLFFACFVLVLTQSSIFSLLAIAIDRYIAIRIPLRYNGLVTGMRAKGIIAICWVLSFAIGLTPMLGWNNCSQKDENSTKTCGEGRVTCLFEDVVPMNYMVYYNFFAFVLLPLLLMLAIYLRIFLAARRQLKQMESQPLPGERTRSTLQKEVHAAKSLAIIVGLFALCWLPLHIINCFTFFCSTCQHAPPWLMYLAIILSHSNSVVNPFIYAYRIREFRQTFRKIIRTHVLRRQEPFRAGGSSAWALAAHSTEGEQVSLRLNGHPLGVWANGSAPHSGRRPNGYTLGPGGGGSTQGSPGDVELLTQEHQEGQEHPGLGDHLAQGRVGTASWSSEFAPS
For a further experiment, the system named is Long Evans rats. Kind of experiment: 5-choice serial reaction time task (5-CSRTT). It counts as in vivo, rat. From the text:
(A) Testing under standard conditions, i.e. equivalent to final conditions to which the animals were trained, i.e. stimulus duration (SD) 0.75 seconds (s), inter-trial interval (ITI) 5 s, 100 trials. The purpose of this condition being to measure drug effect on performance under standard conditions. (B) Testing under conditions of extended (long) ITI, i.e. low event rate, SD 0.3 s, ITI 5, 7.5, 10 s, 120 trials. The purpose of this condition being to measure drug effect on performance under lower event rate requiring the animal to delay its responding. (C) Testing under conditions of short ITI, i.e. high event rate, SD 0.3 s, ITI 3, 4, 5 s, 120 trials. The purpose of this condition to measure drug effect on performance under high event rate requiring the animal to rapidly process sensory information. (D) Testing under conditions of extended trials, i.e. SD 0.3 s, ITI 5 s, 250 trials. The purpose of this condition to measure drug effect on performance under extended trials, testing sustained attention or vigilance.
Sixteen (16) experimentally naïve, male Long Evans rats were trained to asymptotic performance in the 5-CSRTT over a period of approximately 2-3 months. The rats were trained to final stimulus duration (SD) of 0.75 s, 5 s inter-trial interval (ITI), 5 s limited hold (LH), 100 trials per session. Target performance levels under these conditions was in the range of >80% accuracy and <20% omissions.
Once the group of animals were trained, multiple drug studies according to various experimental tasks (see table 2 below) was tested in the same cohort of rats. […] The study design was made up of 4 experiments, with each experiment 2-3 weeks in duration and a 1 week intervening period between each experiment.

Experiment [3] deals with A2A receptor (Homo sapiens, UniProt P29274). The experiment is described as follows: biochemical.
Sequence of A2A receptor (Homo sapiens, UniProt P29274) (P29274 whole entry): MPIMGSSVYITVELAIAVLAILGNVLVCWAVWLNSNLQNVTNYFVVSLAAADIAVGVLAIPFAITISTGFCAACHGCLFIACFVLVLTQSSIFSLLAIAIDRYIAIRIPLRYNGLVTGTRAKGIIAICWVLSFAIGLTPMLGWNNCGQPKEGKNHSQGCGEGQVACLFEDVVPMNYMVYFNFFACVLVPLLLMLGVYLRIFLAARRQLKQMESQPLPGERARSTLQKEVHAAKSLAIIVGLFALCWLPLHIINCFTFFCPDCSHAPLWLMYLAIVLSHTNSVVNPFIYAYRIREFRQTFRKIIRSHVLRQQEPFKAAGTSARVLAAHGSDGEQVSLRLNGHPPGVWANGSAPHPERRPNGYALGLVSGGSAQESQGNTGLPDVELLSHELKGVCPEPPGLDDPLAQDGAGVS
Experiment [4] deals with T2, A2A receptor. Kind of experiment: Striatal A2A occupancy in rats by ex vivo autoradiography. Also noted: incubation of the tracer with brain slices obtained from rats dosed with compound 504; from tissue; host or cells: striatum in coronal brain sections of male CD rats (Charles River Japan). The protocol: After that the artery and vein blood was collected into tubes containing heparin. Immediately after that the brain was removed and ebbed in OCT compound and frozen in 2-methyl butane cooled with dry ice. The frozen brains were preserved at −80 C until use.
Coronal sections (20 μm) at about bregma 1.2 mm were prepared using a cyromicrotome (Coldtome, set temperature—20 C), Sakura) and placed on a slide glass (Super Frost, Matsunami Glass; 2 or 3 sections per glass). The brain sections collected on the slide glass were preserved at −80 C. Seventy μL of the reaction solution containing the tracer at 0.1 or 0.3 nmol/L was applied on the brain section and incubated at room temperature for the preset time. The reaction solution containing the tracer was handled using siliconized tools. After the incubation with the tracer, the brain section was washed for 1 minute with ice-cold wash solution three times and rinsed with ice-cold water twice. Non-specific binding of the tracer was evaluated by performing the same reaction with the brain section prepared from drug-untreated rats in the presence of 0.1 mmol/1 NECA. The brain section was dried at room temperature, exposed to the imaging plate (BAS-TR2040, Fuji Film) in a cassette, and left in a shield box for about 24 hours. The radioactivity was recorded under the following conditions: Resolution: 50 μm; Gradation: 256; Sensitivity: 10000; Latitude:5.
These plasma samples were used as calibration curve samples.
To pre-treat plasma samples, the internal standard (I.S.) was dissolved in acetonitrile to prepare an I.S. solution at 0.03 μg/mL. Plasma sample was diluted with control plasma whenever necessary. To 0.1 mL of plasma sample, 10 μL of the I.S. solution and 1 mL of 10 mmol/L ammonium acetate were added and stirred to prepare the sample for pretreatment. The sample was pretreated using Oasis HLB Extraction Plate (30 mg, Waters). Each well was serially conditioned with 1 mL of methanol and water. One ml of the sample for pretreatment was loaded on a well. After each well was washed with 1 mL of 5% vol % methanol, the analyte was eluted with 1 mL acethonitrile. The eluate was evaporated under nitrogen gas stream and the residue was redssolved in 0.1 mL of the reconstituted solution. The sample was centrifuged at 4 C, about 1800×G for 5 minutes using […] (0.45 μm hydrophilic PVDF, Whatman). An aliquote of the filtrate was used for analysis.
Calculation of the A2A receptor occupancy in striatum was done using the below formula
Φ(%)=(1−(PSLKW−BG/A)/(PSLctrl−BG/A))*100
Where PSLKW- and PSLctrl are PSL values in the ROI of compound 504-[…] animal, respectively. PLS is Photo stimulated luminescence for detection of tracer and ROI is region of interest for tracer measurement in striatum. […]

`Cc1ccc(C(=O)Nc2nc(-c3ccco3)c(C(=O)C3CCOCC3)s2)cn1` [Compound 504]: the Ki (usually the equilibrium dissociation constant of an inhibitor or competing ligand from its target) stood at 428 ± 72.5 nM on A3, 0.1 ± 0.0072 nM at A2A receptor [1], 0.322 ± 0.0114 nM on A2A receptor [2] and 0.118 ± 0.0023 nM at A2A receptor [3]. In addition, the “correct trials completed by all rats in Bin 5” value with Long Evans rats (extended 250 trials, 0.1 mg/kg) is reported as “at least 13”. For the same compound, the “decline in % correct and number of correct responses, increase in omissions over Bins 4 and 5” value in the experiment with Long Evans rats (extended 250 trials, 0.03-0.1 mg/kg oral, particularly 0.06-0.1 mg/kg) was “protected against the decline”. In addition, the premature responses entry in the experiment with Long Evans rats (long ITI, 0.06 mg/kg oral) is recorded as “increased”. The “accuracy under long ITI” value with Long Evans rats (long ITI, 0.06 mg/kg oral, P=0.09) is listed as “non-significant trend of compound 504 to reduce accuracy”. Also, the “performance in terms of choice accuracy” value in the experiment with Long Evans rats (short ITI, 0.03-0.06 mg/kg oral, particularly at 3 s ITI) is “improved performance”. Moreover, the “% correct, # incorrect responses, omissions, premature responses” value in the experiment with Long Evans rats (short ITI, averaged over the multiple ITI) is given as “improving performance on each measure”. Also, the “other measures (% correct, # correct/incorrect responses, omissions, magazine latency)” value in the experiment on Long Evans rats (standard conditions) is listed as “unaffected”. For the same compound, in the experiment with Long Evans rats (standard conditions, doses 0.03-0.1 mg/kg oral), the “speed of responding (correct latency)” value is reported as “significantly increased speed of responding”. In addition, the premature responding entry with Long Evans rats (standard conditions, significant only at 0.1 mg/kg) is reported as “increased premature responding”. In addition, the equilibration half-life at A2A receptor [4] (hysteresis evaluation, semi compartment PK model, rat) was below 30 min. Besides, the “EC80 plasma concentration of rat striatal occupancy” value at A2A receptor [4] (predicted from rat occupancy Emax PK/PD model) is 1.25 µg/mL. Also, the EC50 on A2A receptor [4] (rat, 0.3 mg/kg oral, Emax model, 95% CI 113 to 128 ng/mL, read-out: EC50 plasma concentration for striatal A2A receptor occupancy (converted)) was 304 nM. Moreover, the receptor occupancy at 0.175 µg/mL at A2A receptor [4] (rat, read-out: A2A occupancy corresponding to marmoset EC80 of 175 ng/mL) was above 50%.
